Source: patent USRE50528E1, “Compounds and compositions for modulating EGFR mutant kinase activities” (Yuhan Corporation, priority 2014, dated 2025)
pIC50: −log10 of the molar value.

Tests used:
[1] = tested on: PC9 (EGFR del E746-A750 mutant); test: Cell viability assay, PC9; assay type: cell-based; settings: for Selectivity over wildtype, Wildtype vs mutant H2073/PC9 (fold): cellular potency ratio; for pIC50: cellular potency, 72-hour incubation, ATPLite, read-out: EGFR Mutants PC9;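 as to all read-outs here: NSCLC PC9 cells, whose viability relies on EGFR del E746-A750, exposed to serially diluted compound for 72 h at 37 °C, ATPLite read-out, IC50, H2073 as EGFR wildtype line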
[2] = target: T1, EGFR mutant Del19 (E746-A750) (Homo sapiens, UniProt P00533, DEL746-750); test: Kinase inhibition assay, EGFR del E746-A750; assay type: biochemical; settings: read-out: EGFR mutants Del19 (E746-A750);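 also: truncated human EGFR mutant kinase, two-hour preincubation with compound, then one-hour reaction with ATP and ULight-PolyGT peptide, LANCE Europium-antibody phosphorylation readout, IC50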
T1 construct: truncated human JAK3, EGFR mutants such as del E746-A750; purchased Carna Biosciences
T1 sequence (P00533 with tags, fused parts or gaps DEL746-750 limits assumed): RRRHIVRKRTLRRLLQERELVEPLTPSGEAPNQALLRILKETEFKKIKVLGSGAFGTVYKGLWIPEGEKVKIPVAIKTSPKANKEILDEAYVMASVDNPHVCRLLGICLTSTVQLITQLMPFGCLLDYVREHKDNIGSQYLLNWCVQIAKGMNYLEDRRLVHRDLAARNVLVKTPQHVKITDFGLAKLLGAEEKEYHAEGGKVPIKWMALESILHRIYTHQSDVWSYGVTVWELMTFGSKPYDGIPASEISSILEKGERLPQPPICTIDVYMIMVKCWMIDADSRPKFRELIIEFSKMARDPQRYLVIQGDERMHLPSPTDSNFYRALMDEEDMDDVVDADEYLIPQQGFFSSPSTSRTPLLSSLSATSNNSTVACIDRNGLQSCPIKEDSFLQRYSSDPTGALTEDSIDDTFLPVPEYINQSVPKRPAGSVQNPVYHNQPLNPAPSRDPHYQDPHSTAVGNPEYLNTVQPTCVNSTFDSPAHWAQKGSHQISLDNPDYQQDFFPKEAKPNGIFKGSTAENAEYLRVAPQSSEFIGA

[3] = target: T2, SYK (Homo sapiens, UniProt P43405); test: Kinase inhibition assay, SYK; assay type: biochemical; settings: biochemical potency;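 also: purified full-length human SYK pre-incubated 30 min with compound, then ULight-TK peptide phosphorylation for 1 h, detected with Europium-labeled antibody in Lance buffer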
T2 construct: Purified human, full-length SYK, KDR; purchased Carna Biosciences

[4] = tested on: H1975 (EGFR L858R/T790M mutant); test: Cell viability assay, H1975; assay type: cell-based; settings: for pIC50: Homo sapiens, NCI-H1975, cellular potency, 72-hour incubation, ATPLite, read-out: EGFR Mutants H1975; for Selectivity over wildtype, Wildtype vs mutant H2073/H1975 (fold): cellular potency ratio;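 as to all read-outs here: NSCLC cells whose survival relies on EGFR L858R/T790M, exposed 72 h to serially diluted compound, ATP-based viability readout, with the H2073 line (wildtype EGFR dependent) as wildtype comparator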
[5] = target: T3, EGFR mutant L858R/T790M (Homo sapiens, UniProt P00533, L858R/T790M); test: Kinase inhibition assay, EGFR L858R/T790M; assay type: biochemical; settings: read-out: EGFR mutants L858R/T790M;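 also: truncated human enzyme preincubated two hours with compound, then one hour with one millimolar ATP and ULight-PolyGT peptide, Europium-labeled antibody detection, IC50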
T3 construct: truncated human JAK3, EGFR mutants such as del E746-A750; purchased Carna Biosciences
T3 sequence (P00533 669-1210 T790M/L858R limits assumed): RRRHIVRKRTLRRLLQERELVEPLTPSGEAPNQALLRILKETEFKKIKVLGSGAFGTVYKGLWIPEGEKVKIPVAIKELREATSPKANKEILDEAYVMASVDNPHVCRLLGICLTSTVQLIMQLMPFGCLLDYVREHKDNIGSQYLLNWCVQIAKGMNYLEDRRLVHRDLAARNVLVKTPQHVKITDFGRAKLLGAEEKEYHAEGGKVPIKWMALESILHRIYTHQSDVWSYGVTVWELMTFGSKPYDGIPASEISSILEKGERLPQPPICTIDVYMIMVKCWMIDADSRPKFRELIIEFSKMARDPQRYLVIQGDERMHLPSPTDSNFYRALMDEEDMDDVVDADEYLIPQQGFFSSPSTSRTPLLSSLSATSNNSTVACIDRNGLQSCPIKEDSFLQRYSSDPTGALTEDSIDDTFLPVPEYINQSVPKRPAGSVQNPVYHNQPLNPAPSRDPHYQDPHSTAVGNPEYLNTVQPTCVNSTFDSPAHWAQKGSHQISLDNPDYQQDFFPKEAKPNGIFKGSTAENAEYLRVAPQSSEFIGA

[6] = tested on: H2073 (EGFR wildtype); test: Cell viability assay, H2073; assay type: cell-based; settings: NCI-H2073; cellular potency; 72-hour incubation; ATPLite;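 also: NSCLC cell line whose survival relies on wildtype EGFR, treated with serially diluted compound, cytotoxic effect judged from remaining cell viability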
[7] = target: T4, EGFR mutant T790M (Homo sapiens, UniProt P00533, T790M); test: Kinase inhibition assay, EGFR mutant T790M; settings: biochemical potency;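 also: truncated human EGFR mutant enzyme preincubated two hours with compound, then ATP plus ULight-PolyGT peptide for one hour, Europium-labeled antibody LANCE detection, IC50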
T4 construct: truncated human JAK3, EGFR mutants such as del E746-A750; purchased Carna Biosciences
T4 sequence (P00533 669-1210 T790M limits assumed): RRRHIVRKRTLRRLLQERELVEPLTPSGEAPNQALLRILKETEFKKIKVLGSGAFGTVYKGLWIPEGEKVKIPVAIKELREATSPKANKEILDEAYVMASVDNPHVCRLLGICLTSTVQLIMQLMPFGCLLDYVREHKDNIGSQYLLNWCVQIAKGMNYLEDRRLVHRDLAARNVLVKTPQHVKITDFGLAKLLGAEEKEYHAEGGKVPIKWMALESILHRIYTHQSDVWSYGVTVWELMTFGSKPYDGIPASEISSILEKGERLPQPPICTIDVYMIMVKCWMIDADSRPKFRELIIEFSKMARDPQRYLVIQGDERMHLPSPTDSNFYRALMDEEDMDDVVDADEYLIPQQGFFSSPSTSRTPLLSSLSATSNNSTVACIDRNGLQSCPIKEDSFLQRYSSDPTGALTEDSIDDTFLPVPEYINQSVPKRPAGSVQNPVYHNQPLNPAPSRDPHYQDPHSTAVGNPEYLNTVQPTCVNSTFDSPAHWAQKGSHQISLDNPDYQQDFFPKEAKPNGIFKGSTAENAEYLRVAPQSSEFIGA

[8] = target: T5, EGFR mutant Del19/T790M (Homo sapiens, UniProt P00533, DEL746-750/T790M); test: Kinase inhibition assay, EGFR del E746-A750/T790M; assay type: biochemical; settings: read-out: EGFR mutants Del19/T790M
T5 construct: truncated human JAK3, EGFR mutants such as del E746-A750; purchased Carna Biosciences
T5 sequence (P00533 with tags, fused parts or gaps DEL746-750/T790M limits assumed): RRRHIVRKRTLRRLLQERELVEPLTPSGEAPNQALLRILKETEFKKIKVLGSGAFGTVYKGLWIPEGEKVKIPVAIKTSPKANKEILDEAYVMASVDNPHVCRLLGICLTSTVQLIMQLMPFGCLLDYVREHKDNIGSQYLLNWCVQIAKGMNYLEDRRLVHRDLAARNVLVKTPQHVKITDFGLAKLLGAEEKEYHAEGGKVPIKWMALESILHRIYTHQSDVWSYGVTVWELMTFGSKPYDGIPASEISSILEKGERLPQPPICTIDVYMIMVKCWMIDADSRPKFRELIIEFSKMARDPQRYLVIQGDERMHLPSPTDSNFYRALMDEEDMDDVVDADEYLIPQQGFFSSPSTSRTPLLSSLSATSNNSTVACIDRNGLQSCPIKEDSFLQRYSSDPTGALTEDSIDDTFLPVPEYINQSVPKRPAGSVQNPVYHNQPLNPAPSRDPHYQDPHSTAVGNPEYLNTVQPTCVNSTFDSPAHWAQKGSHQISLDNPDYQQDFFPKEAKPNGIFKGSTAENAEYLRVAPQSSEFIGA

[9] = target: T6, EGFR mutant L858R (Homo sapiens, UniProt P00533, L858R); test: Kinase inhibition assay, EGFR L858R; assay type: biochemical; settings: read-out: EGFR mutants L858R;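 also: truncated human EGFR L858R kinase with compound preincubation, ULight-PolyGT peptide phosphorylation read by Europium-antibody Lance detection, IC50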
T6 construct: truncated human JAK3, EGFR mutants such as del E746-A750; purchased Carna Biosciences
T6 sequence (P00533 669-1210 L858R limits assumed): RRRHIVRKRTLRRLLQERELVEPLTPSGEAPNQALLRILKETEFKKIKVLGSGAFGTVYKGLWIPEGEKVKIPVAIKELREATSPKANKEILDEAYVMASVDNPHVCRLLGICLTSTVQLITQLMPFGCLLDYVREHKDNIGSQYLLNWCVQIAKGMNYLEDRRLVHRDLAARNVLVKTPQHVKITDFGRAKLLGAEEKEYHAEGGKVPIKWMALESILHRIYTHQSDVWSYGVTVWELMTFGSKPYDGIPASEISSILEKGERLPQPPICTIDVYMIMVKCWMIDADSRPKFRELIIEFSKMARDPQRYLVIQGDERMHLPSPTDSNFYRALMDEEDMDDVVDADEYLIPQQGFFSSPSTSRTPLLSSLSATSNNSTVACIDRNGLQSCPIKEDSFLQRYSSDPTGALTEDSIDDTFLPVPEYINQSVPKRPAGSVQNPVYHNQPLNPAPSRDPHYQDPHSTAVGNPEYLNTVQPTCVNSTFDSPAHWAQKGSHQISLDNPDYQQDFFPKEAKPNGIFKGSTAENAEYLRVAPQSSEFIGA

Structure (SMILES)	Selectivity over wildtype, Wildtype vs mutant H2073/PC9 (fold) [1]	pIC50 [1]	pIC50 [2]	pIC50 [3]	pIC50 [4]	Selectivity over wildtype, Wildtype vs mutant H2073/H1975 (fold) [4]	pIC50 [5]	pIC50 [6]	pIC50 [7]	pIC50 [8]	pIC50 [9]
Cc1cc(Nc2nccc(-n3cc(CN4CC(O)C4)c(C4CC4)n3)n2)cc(C)c1OCCO [Compound 151, 1-((3-cyclopropyl-1-(2-(4-(2-hydroxyethoxy)-3,5-dimethylphenylamino)pyrimidin-4-yl)-1H-pyrazol-4-yl)methyl)azetidin-3-ol, reference compound]	<20 fold	< 6.00	< 6.00	6.00 to 6.70	< 6.00	<20 fold	6.70 to 7.70	< 6.00	< 6.00	6.00 to 6.70	6.70 to 7.70
C=C(F)C(=O)Nc1cc(Nc2nccc(-n3cc(CN4CCC4)c(-c4ccccc4)n3)n2)c(OC)cc1N1CCOCC1 [Compound 159, N-(5-(4-(4-(azetidin-1-ylmethyl)-3-phenyl-1H-pyrazol-1-yl)pyrimidin-2-ylamino)-4-methoxy-2-morpholinophenyl)-2-fluoroacrylamide, reference compound]	<20 fold	< 6.00	< 6.00	< 6.00	< 6.00	<20 fold	6.70 to 7.70	< 6.00	< 6.00	6.70 to 7.70	< 6.00
C=CC(=O)Nc1cc(Nc2nccc(-n3cc(CN(C)C)c(C4CC4)n3)n2)c(OC)cc1N(C)CCOC [Compound 106, N-(5-(4-(3-cyclopropyl-4-((dimethylamino)methyl)-1H-pyrazol-1-yl)pyrimidin-2-ylamino)-4-methoxy-2-((2-methoxyethyl)(methyl)amino)phenyl)acrylamide]	101-200 fold	6.70 to 7.70	> 7.70	6.70 to 7.70	6.70 to 7.70	101-200 fold	> 7.70	< 6.00	> 7.70	> 7.70	> 7.70
Cc1cc(Nc2nccc(-n3cc(CN4CC[C@@H](O)C4)c(C)n3)n2)cc(C)c1OCCN1CCCC1 [Compound 148, (R)-1-((1-(2-(3,5-dimethyl-4-(2-(pyrrolidin-1-yl)ethoxy)phenylamino)pyrimidin-4-yl)-3-methyl-1H-pyrazol-4-yl)methyl)pyrrolidin-3-ol, reference compound]	<20 fold	< 6.00	< 6.00	6.00 to 6.70	< 6.00	<20 fold	6.00 to 6.70	< 6.00	< 6.00	6.00 to 6.70	< 6.00
C=CC(=O)Nc1cc(Nc2nccc(-n3cc(CN(C)C)c(C(C)C)n3)n2)c(OC)cc1N1CCOCC1 [Compound 93, N-(5-(4-(4-((dimethylamino)methyl)-3-isopropyl-1H-pyrazol-1-yl)pyrimidin-2-ylamino)-4-methoxy-2-morpholinophenyl)acrylamide]	20-200 fold	> 7.70	> 7.70	< 6.00	> 7.70	20-200 fold	> 7.70	6.00 to 6.70	> 7.70	> 7.70	> 7.70
C=CC(=O)Nc1cc(Nc2nccc(-n3cc(CN(C)CC)c(-c4ccccc4)n3)n2)c(OC)cc1N1CCOCC1 [Compound 92, N-(5-(4-(4-((ethyl(methyl)amino)methyl)-3-phenyl-1H-pyrazol-1-yl)pyrimidin-2-ylamino)-4-methoxy-2-morpholinophenyl)acrylamide]	>200 fold	> 7.70	> 7.70	< 6.00	> 7.70	>200 fold	> 7.70	< 6.00	> 7.70	> 7.70	> 7.70
Cc1cc(Nc2nccc(-n3cc(CN4CC(O)C4)c(C)n3)n2)cc(C)c1OCCO [Compound 149, 1-((1-(2-(4-(2-hydroxyethoxy)-3,5-dimethylphenylamino)pyrimidin-4-yl)-3-methyl-1H-pyrazol-4-yl)methyl)azetidin-3-ol, reference compound]	<20 fold	< 6.00	< 6.00	< 6.00	< 6.00	<20 fold	6.00 to 6.70	< 6.00	< 6.00	< 6.00	< 6.00
CCC(=O)Nc1cc(Nc2nccc(-n3cc(CN4CCC4)c(-c4ccccc4)n3)n2)c(OC)cc1N1CCOCC1 [Compound 158, N-(5-(4-(4-(azetidin-1-ylmethyl)-3-phenyl-1H-pyrazol-1-yl)pyrimidin-2-ylamino)-4-methoxy-2-morpholinophenyl)propionamide, reference compound]	<20 fold	6.70 to 7.70	< 6.00	< 6.00	6.00 to 6.70	<20 fold	< 6.00	< 6.00	< 6.00	< 6.00	< 6.00
C=CC(=O)Nc1cc(Nc2nccc(-n3cc(CN(C)C)c(-c4ccccc4)n3)n2)c(OC)cc1N1CCC1 [Compound 84, N-(2-(azetidin-1-yl)-5-(4-(4-((dimethylamino)methyl)-3-phenyl-1H-pyrazol-1-yl)pyrimidin-2-ylamino)-4-methoxyphenyl)acrylamide]	<20 fold	> 7.70	> 7.70	< 6.00	> 7.70	<20 fold	> 7.70	6.70 to 7.70	> 7.70	> 7.70	> 7.70
Cc1cc(C)cc(Nc2nccc(-n3cc(CN4CC(O)C4)c(C)n3)n2)c1 [Compound 147, 1-((1-(2-(3,5-dimethylphenylamino)pyrimidin-4-yl)-3-methyl-1H-pyrazol-4-yl)methyl)azetidin-3-ol, reference compound]	<20 fold	< 6.00	< 6.00	6.70 to 7.70	< 6.00	<20 fold	6.00 to 6.70	< 6.00	< 6.00	< 6.00	< 6.00
CCC(=O)Nc1cc(Nc2nccc(-n3cc(CN(C)C)c(-c4ccccc4)n3)n2)c(OC)cc1N1CCOCC1 [Compound 157, N-(5-(4-(4-((dimethylamino)methyl)-3-phenyl-1H-pyrazol-1-yl)pyrimidin-2-ylamino)-4-methoxy-2-morpholinophenyl)propionamide, reference compound]	<20 fold	< 6.00	< 6.00	< 6.00	< 6.00	<20 fold	< 6.00	< 6.00	< 6.00	< 6.00	< 6.00
C=CC(=O)Nc1cc(Nc2nccc(-n3cc(CN(C)C)c(C(C)(C)C)n3)n2)c(OC)cc1N(C)CCOC [Compound 100, N-(5-(4-(3-tert-butyl-4-((dimethylamino)methyl)-1H-pyrazol-1-yl)pyrimidin-2-ylamino)-4-methoxy-2-((2-methoxyethyl)(methyl)amino)phenyl)acrylamide]	101-200 fold	6.70 to 7.70	> 7.70	< 6.00	6.70 to 7.70	101-200 fold	> 7.70	< 6.00	6.70 to 7.70	> 7.70	> 7.70
C=CC(=O)Nc1cc(Nc2nccc(-n3cc(CN(C)C)c(C(C)(C)C)n3)n2)c(OC)cc1N1CCOCC1 [Compound 86, N-(5-(4-(3-tert-butyl-4-((dimethylamino)methyl)-1H-pyrazol-1-yl)pyrimidin-2-ylamino)-4-methoxy-2-morpholinophenyl)acrylamide]	20-200 fold	> 7.70	> 7.70	< 6.00	> 7.70	20-200 fold	> 7.70	6.00 to 6.70	6.70 to 7.70	> 7.70	> 7.70
